Reference: paper PMC4168790 (ACS Chemical Biology, 2014)

Legend:
PptT [1] = target: T1, PptT (Mycobacterium tuberculosis, UniProt O33336); format: biochemical, M. tuberculosis; details: MAS as target carrier protein (4 µM MAS, 2 µM rhodamine CoA), 250 nM PptT
T1 sequence (O33336 1-227): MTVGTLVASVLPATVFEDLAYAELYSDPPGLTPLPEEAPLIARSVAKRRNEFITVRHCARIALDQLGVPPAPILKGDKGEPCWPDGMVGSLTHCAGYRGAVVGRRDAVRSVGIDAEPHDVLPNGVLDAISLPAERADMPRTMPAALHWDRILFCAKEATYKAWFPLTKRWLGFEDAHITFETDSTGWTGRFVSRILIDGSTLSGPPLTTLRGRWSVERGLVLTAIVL

PptT [2] = target: T1, PptT; test: biochemical; format: binding, M. tuberculosis
Sfp = target: T2, Sfp (Bacillus subtilis, UniProt P39135); test: Isothermal titration calorimetry of CoA analogs binding to Sfp; parameters: species or system B. subtilis
T2 sequence (P39135 1-224): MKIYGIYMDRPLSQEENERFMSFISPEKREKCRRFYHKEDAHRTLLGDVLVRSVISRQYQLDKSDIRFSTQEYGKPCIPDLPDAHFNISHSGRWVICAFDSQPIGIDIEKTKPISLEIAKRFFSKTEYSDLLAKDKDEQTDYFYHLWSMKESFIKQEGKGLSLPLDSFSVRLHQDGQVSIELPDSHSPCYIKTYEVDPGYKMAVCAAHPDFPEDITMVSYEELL

HsPPT = details: cited from earlier work

Compound: CN[C@@H](C)[C@H](O)c1ccccc1 [(−)-ephedrine hemisulfate, (−)-ephedrine]
- IC50, PptT, MAS (PptT [1]): inactive

Compound: CC(C)(COP(=O)(O)OP(=O)(O)OC[C@H]1O[C@@H](n2cnc3c(N)ncnc32)[C@H](O)[C@@H]1OP(=O)(O)O)[C@@H](O)C(=O)NCCC(=O)NCCS [CoA, coenzyme A]
- Kd (PptT [2]): 36 ± 13 nM
- enthalpy of binding (ΔH), PptT (PptT [2]; ITC, 16°C): −5.78 ± 0.08 kcal mol^–1
- entropy of binding (TΔS), PptT (PptT [2]; ITC, 16°C): 4.14 ± 0.16 kcal mol^–1
- Kd (Sfp): 3400 ± 200 nM
- enthalpy of binding (ΔH), Sfp (Sfp; ITC, 16°C): −12.5 ± 0.15 kcal mol^–1
- entropy of binding (TΔS), Sfp (Sfp; ITC, 16°C): −5.07 ± 0.38 kcal mol^–1

Compound: N=C1Sc2ccccc2C2=NCCCN12 [PD 404, 182]
- inhibitory activity against HsPPT (HsPPT): no inhibitory activity

Compound: CN=c1nc(-c2ccccc2)n(-c2ccccc2)s1 [SCH-202676]
- inhibitory activity against HsPPT (HsPPT): no inhibitory activity

Compound: Clc1ccc(C(c2ccc(Cl)cc2)n2cc[n+](CC(OCc3ccc(Cl)cc3Cl)c3ccc(Cl)cc3Cl)c2)cc1 (stereo not shown) [calmidazolium Cl, calmidazolium chloride]
- inhibitory activity against HsPPT (HsPPT): no inhibitory activity

Compound: NC(N)=Nc1ccc2[nH]c3c(c2c1)C[C@@]1(O)[C@H]2Cc4ccc(O)c5c4[C@@]1(CCN2CC1CC1)[C@H]3O5.O=C(O)C(F)(F)F.O=C(O)C(F)(F)F [guanidinyl-naltrindole 2CF3COOH, guanidinyl-naltrindole]
- inhibitory activity against HsPPT (HsPPT): no inhibitory activity

Compound: O=C1c2c(O)ccc(O)c2C(=O)c2c(NCCNCCO)ccc(NCCNCCO)c21 [mitoxantrone 2HCl, mitoxantrone]
- IC50, PptT, MAS (PptT [1]): inactive

Compound: C[n+]1cc2c3c(ccc2c2ccc4cc5c(cc4c21)OCO5)OCO3 [sanguinarine Cl, sanguinarine chloride]
- inhibitory activity against HsPPT (HsPPT): no inhibitory activity
